{
  "source": "paper PMC9504208",
  "about": "“Comprehensive Study of Antiretroviral Drug Permeability at the Cervicovaginal Mucosa via an In Vitro Model” (Pharmaceutics, 2022)",
  "key": {"[1]": {"tested_on": "drug transporter mRNA expression in HEC-1A cells", "test": "Drug transporter mRNA expression (RT-qPCR) in stimulated HEC-1A cells", "type": "cell-based, human", "settings": "for Change in expression of drug transporters (panel of 17): 72 h stimulation", "experimental": "(§1) Control was 0.1% DMSO with no drug. Cytokines were reconstituted in sterile and distilled water and added individually to cell cultures at the following concentrations: TNF-α (200 pg/mL), IL-1β (8 ng/mL), IL-6 (5 ng/mL) and IL-8 (100 ng/mL) were. […] Cells were stimulated for either drugs, cytokines or hormones for 72 h, before harvesting by centrifugation at 300× g for 10 min at 4 °C. For Lactobacillus crispatus a final MoI of 10 was used (10:1, bacterial cells:mammalian cell ratio) for co-culture in both HEC-1A and VK2/E6E7 cell lines. For Candida albicans, a final MoI of 1 for HEC-1A cells and 0.25 for VK2/E6E7 cells was used. Cells were incubated with fungal cells at 37 °C/5% CO2 for 24 h. All cell line stimulation experiments were conducted as a minimum of three biological repeats.\n(§2) RNA extraction was performed using the RNeasy® Mini Kit (Qiagen, Manchester, UK). Cells were lysed by suspension in 600 μL of RLT Buffer with 1% β-mercaptoethanol (Sigma-Aldrich) and mechanical lysis into a QIAshredder (Qiagen). After the addition of 70% ethanol, the solution was loaded onto RNeasy columns for RNA purification as per the manufacturer’s instructions. DNase treatment was 15 min at room temperature. RNA was eluted from the columns with 30 μL of RNase-free ddH2O. Tapestation analysis was performed using an Agilent 2200 Tapestation system to determine the integrity of the RNA.\n(§3) Synthesis of cDNA was performed using a Superscript® VILO™ kit (Life Technologies, Paisley, UK). Reverse transcription was performed at 25 °C for 10 min, 42 °C for 60 min and 85 °C for 5 min. The cDNA was then stored at −20 °C until RT-PCR assays.\n(§4) SYBRgreen® PrecisionTM 2× qPCR Mastermix with ROX quencher (Primer Design, Southampton, UK) was used for all RT-qPCR assays. Individual primers were designed to target the HPRT1 and RPLP0 housekeeper genes (selected from an initial panel based on SD scores as a measure of the consistency of expression amongst all samples) in addition to seventeen ARV-associated drug transporters (9 ABC transporters and 8 SLC transporters) replicating the system contained in the TaqMan® 96-well Drug Transporter Array system (Life Technologies, Paisley, UK). Real-time quantitative PCR was performed using the 7900HT Fast Real-Time PCR system and data was analysed using the SDS 2.4 software (Applied Biosystems, Waltham, MA, USA). Cycling conditions were: 95 °C for 5 min, followed by 40 cycles of denaturation at 95 °C for 10 s, annealing at 60 °C for 10 s and extension at 72 °C for 10 s. Relative transcript levels in drug-stimulated cells were determined using the comparative Ct method (ΔΔCt method). Fold-change values of ±2–3 were considered minor, ±3–5 as moderate and >±5 as high."}, "[2]": {"tested_on": "drug transporter mRNA expression in VK2/E6E7 cells", "test": "Drug transporter mRNA expression (RT-qPCR) in stimulated VK2/E6E7 cells", "type": "cell-based, human", "experimental": "as §1, §2, §3, §4"}, "in vitro": {"test": "in vitro", "settings": "human, pH 7.4", "quoted_text": "All transport experiments were undertaken over a 2-h period (unless stated) at 37 °C in HBSS supplemented with 1% HEPES buffer (Sigma-Aldrich) at pH 7.4 as reported [22]. HBSS was used to prevent the drug from binding to albumin present in cell culture media. All solutions were warmed to 37 °C and experiments were performed on a heated orbital shaker set at 50 RPM. […] Prior to the initiation of the drug transport experiments, TEER was measured. Cell layers were then washed twice with pre-warmed HBSS+1%HEPES transport buffer and equilibrated in the same solution for 30 min at 37 °C. […] The experiment was initiated when either the donor or receiver solutions were added to the respective compartments. Following the addition of donor solution, 20 µL samples were taken immediately from donor and receiver compartments, T = 0 (for assessment of initial concentration and background radioactivity, respectively). Transwells® were then placed on an orbital shaker set at 50 RPM. […] After final sampling, TEER was measured to confirm that there was no disruption to the epithelial barrier during the experimental procedure. Radioactive samples were mixed with 4 mL of scintillation fluid (Fisher Scientific, Waltham, MA, USA) and analysed using a liquid scintillation counter (Beckman Coulter, Brea, CA, USA). […]"}, "[3]": {"test": "Bi-directional permeability (Papp) across HEC-1A dual chamber (Transwell) barrier model", "type": "in vitro ADME", "settings": "human; for Papp A→B at 2 h: pH 7.4, Absorptive Papp of mannitol; for Papp B→A at 2 h: pH 7.4, Secretory Papp of mannitol", "experimental": "The apical chambers of 12-well polycarbonate and polyester systems (Corning Costar Corp, Cambridge, UK) were seeded with different densities of HEC-1A cells in 500 µL of the medium while 1500 µL culture medium was added to the basolateral chamber. -Medium in both chambers was changed every 48–72 h."}, "VK2/E6E7 cells": {"tested_on": "VK2/E6E7 cells", "test": "Intracellular accumulation of digoxin in cytokine-stimulated VK2/E6E7 cells", "type": "cell-based, human", "settings": "5 µM digoxin, 1 h; after cytokine stimulation", "experimental": "A 500 μL sample from each well was stored and the remainder of the buffer was aspirated from the plates. The wells were then washed twice with ice-cold PBS to stop any further uptake of the drug. To each well, 500 μL of ddH2O was added and cells were removed using a cell scraper. The cell suspension was then transferred to individual tubes for mechanical cell lysis using a 21-gauge needle followed by a freeze-thaw cycle at -80 °C. Protein content for normalisation calculations was measured via a bicinchoninic acid assay. The solution was then centrifuged at 14,000× g for 15 min and the supernatants were stored at -80 °C until analysis by LC-MS/MS. Samples were centrifuged at 14,800 rpm for 5 min to remove cell debris. […] Analysis was performed on a Thermo Surveyor TSQ Quantum system using electrospray ionisation in positive ion mode. Samples (5 μL) were applied to a C18 column (Gemini 3μ, 150 × 3.0 mm, Phenomenex, Macclesfield, UK) maintained at 40 °C. […] The flow rate for both methods was 350 μL/min. […] Cytokines were reconstituted in sterile and distilled water and added individually to cell cultures at the following concentrations: TNF-α (200 pg/mL), IL-1β (8 ng/mL), IL-6 (5 ng/mL) and IL-8 (100 ng/mL) were. […] Cells were stimulated for either drugs, cytokines or hormones for 72 h, before harvesting by centrifugation at 300× g for 10 min at 4 °C. […] All cell line stimulation experiments were conducted as a minimum of three biological repeats."}, "HEC-1A cells": {"tested_on": "HEC-1A cells", "test": "Cytokine production of HEC-1A cells stimulated with PAMPs (Luminex)", "type": "cell-based, human", "settings": "24 h stimulation", "experimental": "HEC-1A cells were stimulated with different PAMPs (pam 3CSK4, lipoteichoic acid, poly(I:C), Escherichia coli lipopolysaccharide, FSL-1, flagellin, imiquimod, zymosan) (InvivoGen, San Diego, CA, USA) diluted in cell culture media with incubation at 37 °C in 5% CO2 for 24 h. PAMPs were titrated to determine the optimal concentration for cytokine stimulation. Blank samples contained media only. After 24 h, the supernatant was collected for cytokine detection. Cytokine levels were determined using a Magnetic Luminex® Performance Assay kit (R&D Systems, Minneapolis, MN, USA) following the manufacturer’s instructions. Analyte-specific antibodies were pre-coated onto colour-coded microparticles and detection was carried out with a biotinylated antibody cocktail specific to the target cytokines and a streptavidin-phycoerythrin conjugate. Samples were resuspended in 100 µL of Washing Buffer and measured for a phycoerythrin-derived signal using a Luminex® 100 instrument."}, "[4]": {"settings": "72 h hormone stimulation, vs ethanol control, increased"}, "[5]": {"settings": "1% DMSO in donor compartment (initial dapivirine assay)"}, "[6]": {"settings": "paracellular marker in the tenofovir permeability assay"}},
  "data": [
    {"compound": "C[C@]12CC[C@@H]3c4ccc(O)cc4CC[C@H]3[C@@H]1CC[C@@H]2O", "note": "[β-estradiol]", "values": [
      {"measurement": "BCRP mRNA expression, fold-change", "setting": "[1]; [4]", "value": "2.64 ± 0.44", "unit": "fold"},
      {"measurement": "CNT3 mRNA expression, fold-change", "setting": "[2]; [4]", "value": "3.70 ± 1.43", "unit": "fold"},
      {"measurement": "MRP3 mRNA expression, fold-change", "setting": "[2]; [4]", "value": "2.14 ± 0.30", "unit": "fold"}
    ]},
    {"compound": "OC[C@@H](O)[C@@H](O)[C@H](O)[C@H](O)CO", "note": "[mannitol]", "values": [
      {"measurement": "Papp", "setting": "HEC-1A cell layers", "value": "2.23 to 2.47", "unit": "×10⁻⁶ cm/s"},
      {"measurement": "Papp at 2 h, 10 µM", "setting": "in vitro", "value": "1.43 to 2.17", "unit": "×10⁻⁶ cm/s"},
      {"measurement": "Papp A→B at 2 h", "setting": "[3]; [5]", "value": "2.5 to 2.61", "unit": "×10⁻⁶ cm/s"},
      {"measurement": "Papp A→B at 2 h", "setting": "[3]; [6]", "value": "2.09 to 3.1", "unit": "×10⁻⁶ cm/s"},
      {"measurement": "Papp B→A at 2 h", "setting": "[3]; [5]", "value": "5.1 to 6.81", "unit": "×10⁻⁶ cm/s"},
      {"measurement": "Papp B→A at 2 h", "setting": "[3]; [6]", "value": "2.7 to 2.85", "unit": "×10⁻⁶ cm/s"},
      {"measurement": "Papp at 2 h", "setting": "[3]; pH 7.4, mannitol measured simultaneously in drug permeability assays, read-out: Papp (barrier integrity control)", "value": "< 4", "unit": "×10⁻⁶ cm/s"}
    ]},
    {"compound": "IL-1β: pro-inflammatory cytokine", "values": [
      {"measurement": "Change in expression of drug transporters (panel of 17)", "setting": "[1]", "value": "No changes"},
      {"measurement": "Effect on intracellular uptake of digoxin", "setting": "VK2/E6E7 cells", "value": "significantly reduced"},
      {"measurement": "Expression of uptake transporters OATP8 and CNT3", "setting": "[2]; 72 h cytokine stimulation", "value": "induce the expression"},
      {"measurement": "P-gp mRNA level", "setting": "[2]; 72 h cytokine stimulation", "value": "increased"}
    ]},
    {"compound": "flagellin", "values": [
      {"measurement": "Pro-inflammatory cytokine production", "setting": "HEC-1A cells", "value": "stimulated production of IL-8, GM-CSF and TNF-α"}
    ]},
    {"compound": "IL-8: pro-inflammatory cytokine", "values": [
      {"measurement": "Change in expression of drug transporters (panel of 17)", "setting": "[1]", "value": "No changes"}
    ]}
  ]
}
